In US8759073B2, “Method for effectively controlling harmful organisms in large-scale culture of microalgae” (ENN Science & Technology Development Co., Ltd., priority 2009, dated 2014):
Entries after “also recorded” stand apart in the source; their conditions may differ.

Columns and labels:
Chlorococcum sp. = test: Growth of cultured algae after treatment, 60 L glass plate reactor
Description: pH of the normally cultured microalgae is adjusted into various ranges. The growth rate of the microalgae is measured and their appearance is observed under a microscope.
Chlorococcum sp. (obtained from Qingdao Marine Institute) was cultured (pH 8.0-9.0 for the normal culture) in a 60 L glass plate reactor (manufactured by Longfang Jiangchuan plexiglass Co. Ltd., OP=10 cm) under a sunlight film (with a temperature of about 25 °C, a humidity of 60%-80%, and an illumination of 8000-20000 lux). Modified BG11 medium (see Table 3) was used. […] CO2 was aerated continuously. […] Then air was sufficiently aerated, and pH was raised to 7.0-8.0 in 4 hours.
(§1) Chlorococcum sp. (obtained from Qingdao Marine Institute) was cultured in a 60 L glass plate reactor (manufactured by Longfang Jiangchuan plexiglass Co. Ltd., OP=10 cm) under a sunlight film (with a temperature of about 25 °C, a humidity of 60%-80%, and an illumination of 8000-20000 lux) (pH 8.0-9.0 for the normal culture). Modified BG11 medium (see Table 3) was used. […] Then CO2 was aerated and pH was adjusted to 7.0-8.0.
Chlorococcum sp. (obtained from Qingdao Marine Institute) was cultured in a 60 L glass plate reactor (manufactured by Longfang Jiangchuan plexiglass Co. Ltd., OP=10 cm) under a sunlight film (with a temperature of about 25 °C, a humidity of 60%-80%, and an illumination of 8000-20000 lux) (pH 8.0-9.0 for the normal culture). Modified BG11 medium (see Table 3) was used. […] One hour later, CO2 was aerated to saturation (about pH 5.6) for 24 hour continuously. […] Then air was sufficiently aerated.
as §1, with “air” for “CO2”, “sufficiently aerated.” for “aerated and pH was adjusted to 7.0-8.0.”
as §1
Chlorococcum sp. (obtained from Qingdao Marine Institute) was cultured in a 60 L glass plate reactor (manufactured by Longfang Jiangchuan plexiglass Co. Ltd., OP=10 cm) under a sunlight film (with a temperature of about 25 °C, a humidity of 60%-80%, and an illumination of 8000-20000 lux) (pH 8.0-9.0 for the normal culture). Modified BG11 medium (see Table 3) was used.

Dunaliella tertiolecta = test: Growth of cultured algae after treatment, 120 L bubbling reactor; type: cell-based; conditions: Example 1; CO2 intermittently pH 6.0-6.5 for 2 days, salinity decreased by 1%
Excerpt: Salinity was reduced by 1% (e.g. from 9% to 8%) by way of dilution with water. Then air was sufficiently aerated.

Spirulina maxima = test: Growth of cultured algae after treatment, 500 L raceway pond; type: cell-based; conditions: Example 15; 1M ammonia pH 10.0 1 h, saturated CO2 23 h, then air
Description: (§2) Modified SM (see Table 2) was used. […] Then air was sufficiently aerated. Twenty-four hours later, the algae could resume to grow.
(§3) Modified SM (see Table 2) was used. […] One hour later, CO2 was aerated to saturation for 23 hour continuously (about pH 5.8). […] Then air was sufficiently aerated. Twenty-four hours later, the algae could resume to grow.

ciliate = test: Control of ciliate contamination (mixed contamination) in microalgae culture, microscope examination; type: cell-based
Excerpt: In an embodiment, the pH of the culture system is first raised by alkalis, followed by aeration of CO2 to saturation. When the harmful organisms are observed as being in control under a microscope (for example, these harmful organisms such as Oxyrrhis, Amoeba and ciliate cannot be observed under a microscope or the activity of the harmful organisms has been reduced), the pH value is then adjusted back to the optimal pH suitable for microalgae growth by sufficiently aerating air. In an embodiment, an interval of 1 hour exists between the step of raising pH of the culture system with an alkali and the step of aerating CO2 to saturation. In an embodiment, said alkali can be ammonia. In an embodiment, said alkali can be 1M NaOH. […] In an embodiment, the pH of the culture system is adjusted to 11.5-12.0, 11.0-11.8 or 8.0-11.0 with 1M NaOH or 1M ammonia. In an embodiment, the pH of the culture system is adjusted to 11.5-12.0, 11.0-11.8 or 8.0-11.0 and maintained for 1 hours, followed by aeration of CO2 to saturation for about 24 hours. In an embodiment, the pH of the culture system is adjusted to 11.5-12.0, 11.0-11.8 or 8.0-11.0 and maintained for 1 hours, followed by aeration of CO2 to saturation for about 23 hours.
Chlorella sp. […] Modified SM medium (see Table 2) was used. […] Then air was sufficiently aerated.
Chlorococcum sp. […] Modified BG11 medium (see Table 3) was used. […] Then air was sufficiently aerated. Eighteen hours later, Chlorococcum sp. could resume to grow.
as §2
Then air was sufficiently aerated. Eighteen hours later, Chlorococcum sp. could resume to grow.
as §3

Nannochloris sp. = test: Growth of cultured algae after treatment, 1.5 m^3 glass plate reactor; type: cell-based; conditions: Example 9; CO2 periodically at an interval of 2 hours, 2 days
Description: Nannochloris sp. […] Modified BG11 medium (see Table 4) was used. […] Then CO2 was aerated periodically at an interval of 2 hours (pH ranged within 5.0-8.5).

For `O=C=O` [CO2, carbon dioxide], the “growth of the algae” value (Chlorococcum sp.) was “rarely affected”, the “time until algae started to grow after recovery of pH7.0 or above” value (Chlorococcum sp.; pH 7) was 8 hours and the “time until algae resumed to grow after air aeration” value (Chlorococcum sp.; pH 9) was “Eighteen”. For the same molecule, the “impact on the growth of algae” value (Dunaliella tertiolecta) was “not affected essentially; also recorded: little impact on the growth of algae”, the “time until algae resumed to grow after air aeration” value (Spirulina maxima) was “Twenty-four” and the “ciliates, result of microscope examination” value (“ciliates, result” below) (ciliate; Example 4, after 1M NaOH pH 11.0-11.8 1 h, CO2 to saturation (pH 5.6) 24 hours) was “a few inactive and immotile ciliates”. The “ciliates, result” value (ciliate; Example 7, after 1M NaOH pH 11.5-12.0 1 h, CO2 to saturation (about pH 5.6) 24 hour) was “a few inactive and immotile ciliates”, the “ciliates, result” value (ciliate; Example 10, after 1M NaOH pH 11.5-12.0 1 h, CO2 to saturation (about pH 5.8) 23 hour) was “a few inactive and immotile ciliates” and the “ciliates, result” value (ciliate; Example 12, after 1M ammonia pH 9.0 1 h, CO2 to saturation (pH 5.6) 24 hours) was “a few inactive and immotile ciliates”. The “ciliates, result” value (ciliate; Example 14, after 1M ammonia pH 9.0 1 h, CO2 to saturation (about pH 5.6) 24 hour) was “a few inactive and immotile ciliates”, the “ciliates, result” value (ciliate; Example 15, after 1M ammonia pH 10.0 1 h, CO2 to saturation (about pH 5.8) 23 hour) was “a few inactive and immotile ciliates” and the “growth rate of the algae” value (Nannochloris sp.) was “rarely affected; also recorded: not affected”.
